Patent EP0617001B1, “Phenoxyphenylacetic acid derivatives” (Merck & Co., Inc., priority 1993, dated 1994)
Where a name gives a salt, the structure may show the parent alone.

Assays:
[1] = tested on: Anesthetized Male Dog; test: ET-1 induced changes in diastolic blood pressure (DBP) and intra-urethral pressure (IUP) in the anesthetized male dog; type: in vivo, mongrel dog; settings: for % INHIBITION of ET-1 induced change in DBP, DEPRESSOR / % INHIBITION of ET-1 induced change in DBP, PRESSOR / % INHIBITION of ET-1 induced change in IUP, PRESSOR: 30 mg/kg intra-venous
Method: Methodology for determining whether an ET-1 selective antagonist could inhibit the ET-1 mediated prostatic urethral contractions in a mongrel dog model:
(§1) On separate days, two fasted male mongrel dogs (HRP, Inc.) weighing 11.0 and 12.4 kg, were anesthetized with Sodium Pentobarbital (Steris Laboratories, Inc.) at 35 mg/kg (i.v.) to effect, followed by 4 mg/kg/hr (i.v.) infusion. A cuffed endotracheal tube was inserted and each animal was ventilated with room air using a positive displacement large animal ventilator (Harvard Apparatus) at a rate of 18 breaths/minute and an average tidal volume of 18 ml/kg body weight. Body temperature was maintained with a heating pad and heat lamp using a temperature controller (YSI) and esophageal probe. Two catheters (PE 260) were placed in the aorta via the femoral arteries (one in each artery) for administration of endothelin or phenylephrine and for continuous direct monitoring of blood pressure and heart rate using a Statham blood pressure transducer (Spectramed) and a computer system (Modular Instruments, Inc.). Two other catheters (PE 260) were placed in the vena cava via the femoral veins (one catheter in each vein) for administration of pentobarbital and N-(4-iso-propylbenzenesulfonyl)-α-(4-carboxy-2-n-propylphenoxy)-3,4-methylenedioxyphenylacetamide dipotassium salt [Example 42]. A supra-pubic incision approximately one-half inch lateral to the penis was made to expose the ureters, urinary bladder, prostate, and urethra. The dome of the bladder was retracted to facilitate dissection of the ureters. The ureters were cannulated with PE 90 and tied off to the bladder. Umbilical tape was passed beneath the urethra at the bladder neck and another piece of tape was placed approximately 1-2 cm. distal to the prostate. The bladder dome was incised and a Micro-tip® catheter transducer (Millar Instruments, Inc.) was advanced into the urethra. The neck of the bladder was ligated with the umbilical tape to hold the transducer. The bladder incision was sutured wit 3-0 silk (purse string suture). The transducer was withdrawn until it was positioned in the prostatic urethra. The position of the Micro-tip® catheter was verified by gently squeezing the prostate and noting the large change in urethral pressure prior to ligating the distal urethra.
(§2) Phenylephrine (PB) (10 µg/kg, intra-arterial) was administered and pressor effects on diastolic blood pressure (DBP) and intra-urethral pressure (IUP) were noted. When blood pressure returned to baseline, endothelin-1 (ET-1) (1 nmole/kg, intra-arterial) was administered. Changes in DBP and IUP were monitored for one hour and an ET-1 selective endothelin antagonist, such as the compound of Example 42, N-(4-iso-propylbenzene-sulfonyl)-α-(4-carboxy-2-n-propylphenoxy)-3,4-methylenedioxyphenyl-acetamide dipotassium salt (30 mg/kg, intra-venous) was administered. Ten to fifteen minutes later when blood pressure had stabilized, ET-1 was administered again, and inhibition of ET-1 induced effects were noted. PE was administered at the end of the experiment to verify specificity for ET-1 blockade. The dogs were euthanized with an overdose of pentobarbital followed by saturated KCl.
(§3) All drugs were dissolved in isotonic saline solution.

[2] = tested on: Anesthetized Male Dog; test: Phenylephrine (PE)-induced changes in DBP and IUP in the anesthetized male dog (specificity for ET-1 blockade); type: in vivo, mongrel dog
Method: as §1, with “Two other catheters (PE 260) were placed in the vena cava via the femoral veins (one catheter in each vein) for administration of pentobarbital and N-(4-iso-propylbenzenesulfonyl)-α-(4-carboxy-2-n-propylphenoxy)-3,4-methylenedioxyphenylacetamide dipotassium salt [Example 42].” left out
as §2, with “Changes in DBP and IUP were monitored for one hour and an ET-1 selective endothelin antagonist, such as the compound of Example 42, N-(4-iso-propylbenzene-sulfonyl)-α-(4-carboxy-2-n-propylphenoxy)-3,4-methylenedioxyphenyl-acetamide dipotassium salt (30 mg/kg, intra-venous) was administered.” left out
as §3

[3] = tested on: rat prostate; test: In situ rat prostate: ET-1 induced contraction; type: in vivo, Sprague-Dawley rats; settings: antagonist injected IA
Method: Male Sprague-Dawley rats (Taconic Farms) weighing 300-400 grams were anesthetized with urethane (1.75 g/kg, ip), a tracheal cannula was inserted, and the femoral artery was cannulated. Core body temperature was maintained at 37 + 0.5 °C. A 4-5 cm midline abdominal incision was made to expose the bladder and prostate. The prostate was separated from the bladder and surrounding capsule by blunt dissection with a forcep. A length of surgical silk was gently secured around the anterior tips of the prostate lobes. A second length of surgical silk attached to an atraumatic needle was passed through and tied to the base of the prostate approximately 10-12 mm posterior to the first tie. The posterior ligature was secured to an anchor post whereas the anterior ligature was connected to a Grass FT03 transducer (Grass Instruments, Quincy, MA) and maintained at a tension of 1 g. Signals from the transducer were amplified and recorded on a polygraph (Hewlett-Packard 8805B amplifiers and 7758A recorder, Palo Alto, CA). After equilibrating for approximately 15 min, the rats were administered pretreatment drugs (atropine 1 mg/kg, (+) propranolol 1 mg/kg) 10 min apart through the intra-arterial (IA) cannula. […] The response of the prostate to FT-1 was quantified by measuring the change (Δ) from baseline tension to the peak of the response during the 5-minute period after the third FT-1 injection.

[4] = ET-1 (i.a.) alone, 1 nmole/kg, MEAN, n=2 dogs
[5] = ET-1 (i.a.) alone, 1 nmole/kg, dog HG FMHK
[6] = ET-1 (i.a.) alone, 1 nmole/kg, dog HG FMJC
[7] = 30 mg/kg intra-venous, dog HG FMJC
[8] = ET-1 challenge after antagonist 30 mg/kg intra-venous, MEAN, n=2 dogs
[9] = ET-1 challenge after antagonist 30 mg/kg intra-venous, dog HG FMHK
[10] = ET-1 challenge after antagonist 30 mg/kg intra-venous, dog HG FMJC
[11] = Phenylephrine alone, 10 µg/kg intra-arterial, dog HG FMJC

Endothelin-1 [ET-1]
CHANGE IN DBP (mmHg) DEPRESSOR [1, 4]: -13 mmHg | CHANGE IN DBP (mmHg) PRESSOR [1, 4]: 26 mmHg | CHANGE IN IUP (mmHg) PRESSOR [1, 4]: 15 mmHg | CHANGE IN DBP (mmHg) DEPRESSOR [1, 5]: -15 mmHg | CHANGE IN DBP (mmHg) PRESSOR [1, 5]: 33 mmHg | CHANGE IN IUP (mmHg) PRESSOR [1, 5]: 11 mmHg | CHANGE IN DBP (mmHg) DEPRESSOR [1, 6]: -10 mmHg | CHANGE IN DBP (mmHg) PRESSOR [1, 6]: 19 mmHg | CHANGE IN IUP (mmHg) PRESSOR [1, 6]: 18 mmHg | decrease in DBP ([1]; ET-1 alone, 1 nmole/kg intra-arterial, average of both dogs): 13 mmHg

CCCc1cc(C(=O)O)ccc1OC(C(=O)NS(=O)(=O)c1ccc(C(C)C)cc1)c1ccc2c(c1)OCO2 (stereo not drawn) [Example 42, N-(4-iso-propylbenzenesulfonyl)-α-(4-carboxy-2-n-propylphenoxy)-3,4-methylenedioxyphenylacetamide dipotassium salt]
% Inhibition of Control, PE-induced INCREASE IN DBP [2, 7]: 35% | % Inhibition of Control, PE-induced INCREASE IN IUP [2, 7]: 13% | Intra-arterial PE-induced increases in DBP and IUP after administration ([2]; one dog studied): did not change significantly | % INHIBITION of ET-1 induced change in DBP, DEPRESSOR ([1]; MEAN, n=2 dogs): 69% | % INHIBITION of ET-1 induced change in DBP, PRESSOR ([1]; MEAN, n=2 dogs): 76% | % INHIBITION of ET-1 induced change in IUP, PRESSOR ([1]; MEAN, n=2 dogs): 93% | % INHIBITION of ET-1 induced change in DBP, DEPRESSOR ([1]; dog HG FMHK): 67% | % INHIBITION of ET-1 induced change in DBP, PRESSOR ([1]; dog HG FMHK): 94% | % INHIBITION of ET-1 induced change in IUP, PRESSOR ([1]; dog HG FMHK): 91% | % INHIBITION of ET-1 induced change in DBP, DEPRESSOR ([1]; dog HG FMJC): 70% | % INHIBITION of ET-1 induced change in DBP, PRESSOR ([1]; dog HG FMJC): 58% | % INHIBITION of ET-1 induced change in IUP, PRESSOR ([1]; dog HG FMJC): 94% | CHANGE IN DBP (mmHg) DEPRESSOR [1, 8]: -4 mmHg | CHANGE IN DBP (mmHg) PRESSOR [1, 8]: 5 mmHg | CHANGE IN IUP (mmHg) PRESSOR [1, 8]: 1 mmHg | CHANGE IN DBP (mmHg) DEPRESSOR [1, 9]: -5 mmHg | CHANGE IN DBP (mmHg) PRESSOR [1, 9]: 2 mmHg | CHANGE IN IUP (mmHg) PRESSOR [1, 9]: 1 mmHg | CHANGE IN DBP (mmHg) DEPRESSOR [1, 10]: -3 mmHg | CHANGE IN DBP (mmHg) PRESSOR [1, 10]: 8 mmHg | CHANGE IN IUP (mmHg) PRESSOR [1, 10]: 1 mmHg | hemodynamic and prostatic urethral responses to ET-1 ([1]; anesthetized dogs): specifically inhibited | inhibition of ET-1 to contract the prostate [3]: specific inhibition

CNC[C@H](O)c1cccc(O)c1 [Phenylephrine, reference compound]
INCREASE IN DBP (mmHg) [2, 11]: 17 mmHg | INCREASE IN IUP (mmHg) [2, 11]: 31 mmHg
